From US8202540B1, “Method for controlled production of ultrafine microparticles and nanoparticles” (Abbott GmbH & Co., KG, priority 1999, dated 2012)
One block for each compound: values may come before it.

Tests used:
Assay type in all cases: physicochemical
[1] = Particle size by laser diffractometry (LD, Coulter LS230)
[2] = Average particle diameter determined by light microscopy; conditions: Example 14: propylene glycol, 0.2% Tween 80; 700 bar, room temperature, 30 minutes, degassed medium, nitrogen
From the text: 10% tragacanth was dispersed in Miglyol 812 with addition of 1% Span 80 and microparticles prepared as described in example 1. The average diameter determined by light microscopy was 7.54 μm after 10 cycles at 1500 bar.
Preparation of a Clinical Batch Under Oxygen-Poor Conditions and protective gassing: azodicarbonamide (1) was dispersed with addition of Tween 80 (0.2%) analogously to example 12 in 2 kg propylene glycol and homogenized (homogenization pressure: 700 bar, room temperature) in a cyclical process for 30 minutes with a Micron LAB 60 (APV Deutschland GmbH, Lubeck, Germany). Propylene glycol was degassed beforehand by heating. The product container was kept under nitrogen. The average diameter determined by light microscopy was 5.45 μm after 30 minutes' homogenization time.

[3] = Particle size by photon correlation spectroscopy (PCS, Zetasizer 4); conditions: Example 2: anhydrous glycerol, 20 cycles at 1500 bar
From the text: The characterization of the superfine microparticle dispersions and nanoparticles was by means of laser diffractometry (LD) (Coulter LS230, Coulter Electronics, Miami, USA) and photon correlation spectroscopy (PCS) (Zetasizer 4, Malvern Instruments, Malvern, United Kingdom). Characterization parameters were the 50% (D50%), 90% (D90%) and 95% (D95%) LD diameter measured by LD. The PCS (measurement range approx. 3 nm-3 μm) gives the PCS diameter and, as a measure of the width of the distribution, the polydispersity index (PI) in the range from 0.000 (+ideal monodispersion) to 0.500 (very broad distribution), above 0.5 no further conclusions can be drawn with regard to the width of distribution.

[4] = Example 12: 10% in PEG 400, 0.5% Tween 80, 4 cycles at 1500 bar
[5] = Example 1: 1% drug, 0.5% Tween 80, anhydrous glycerol, 6 cycles at 1500 bar, room temperature
[6] = Example 3: anhydrous glycerol, 10 cycles at 1500 bar
[7] = Example 3: purely aqueous dispersion (glycerol replaced by water), 10 cycles at 1500 bar
[8] = Example 6: 1.0% water, 4 cycles at 1500 bar
[9] = Example 6: anhydrous (0% water), 4 cycles at 1500 bar
[10] = Example 7: 10% water, 4 cycles at 1500 bar
[11] = Example 7: 30% water, 4 cycles at 1500 bar
[12] = Example 8: 50% water, 4 cycles at 1500 bar
[13] = Example 13: 10 cycles at 1500 bar

SMILES: NC(=O)N=NC(N)=O [azodicarbonamide]
50% diameter [1, 4]: 3.0 μm
D90% [1, 4]: 6.2 μm
D95% [1, 4]: 7.2 μm
average diameter determined by light microscopy [2]: 5.45 μm

D50% LD diameter [1, 5]: 1.7 μm
D90% LD diameter [1, 5]: 4.5 μm
D95% LD diameter [1, 5]: 5.4 μm
D50% diameter [1, 6]: 1.3 μm
D90% diameter [1, 6]: 3.2 μm
D50% diameter [1, 7]: 0.9 μm
D90% diameter [1, 7]: 2.3 μm
D50% diameter [1, 8]: 2.1 μm
D90% diameter [1, 8]: 5.4 μm
D50% diameter [1, 9]: 1.9 μm
D90% diameter [1, 9]: 4.9 μm
D50% diameter [1, 10]: 1.7 μm
D90% diameter [1, 10]: 4.1 μm
D50% diameter [1, 11]: 1.7 μm
D90% diameter [1, 11]: 4.2 μm
D50% diameter [1, 12]: 1.5 μm
D90% diameter [1, 12]: 3.7 μm
95% diameter ([1]; Example 13: 0% water (pure glycerol), 10 cycles at 1500 bar): 3.9 μm
D50% across dispersion media of 0% to 100% water [1, 13]: little change
difference in 95% diameter, pure glycerol vs pure water [1, 13]: approx. 1.1 μm
difference in D95%, 2 cycles vs 10 cycles ([1]; Example 13: pure glycerol (0% water), 1500 bar): approx. 3.1 μm
D95% ([1]; Example 13: pure glycerol (0% water), after 2 cycles at 1500 bar): 7.0 μm
95% diameter ([1]; Example 13: pure water, 10 cycles at 1500 bar): 2.8 μm
average PCS diameter [3]: 950 nm
polydispersity index (PI) [3]: 0.513
SMILES: CC1CN(c2nc(N(CCO)CC(C)(C)O)c3nc(-c4ccccc4)c(N4CC(C)OC(C)C4)nc3n2)CC(C)O1 (stereo not drawn) [drug from example 1, 1-[[2,7-bis(2,6-dimethyl-4-morpholinyl)-6-phenyl-4-pteridinyl]-(2-hydroxyethyl)-amino]-2-methyl-[cis[cis]]-propan-2-ol]
